This is an account of results in US20090318492A1, “INDOLE COMPOUNDS HAVING C4-ACIDIC SUBSTITUENTS AND USE THEREOF AS PHOSPHOLIPASE-A2 INHIBITORS” (priority 2005, published 2009).

Molecules are shown by their SMILES.

For one data set, the target named is mouse PLA2 IB enzyme (Mus musculus, UniProt Q9Z0Y2). The settings on record: versus the mouse PLA2 IB enzyme; Singer, Ghomashchi et al. 2002; cited from earlier work.
Data set [1] can be described thus: Example 6C pharmokinetic study of ILY-4001 (IV and oral). The class given is in vivo, mice. As to conditions: 30 mg/kg oral. An excerpt: This example characterized ILY-4001 [2-(3-(2-amino-2-oxoacetyl)-1-(biphenyl-2-ylmethyl)-2-methyl-1H-indol-4-yloxy)acetic acid], alternatively referred to herein as methyl indoxam, with respect to activity, as determined by IC50 assay (Example 6A), with respect to cell absorbtion, as determined by in-vitro Caco-2 assay (Example 6B) and with respect to bioavailability, as determined using in-vivo mice studies (Example 6C).
This example evaluated the bioavailability of ILY-4001 [2-(3-(2-amino-2-oxoacetyl)-1-(biphenyl-2-ylmethyl)-2-methyl-1H-indol-4-yloxy)acetic acid], alternatively referred to herein as methyl indoxam. […]
Bioavailability was calculated as a ratio of AUC-oral/AUC-intravenous (IV). To determine this ratio, a first set of subject animals were given a measured intravenous (IV) dose of ILY-4001, followed by a determination of ILY-4001 levels in the blood at various time points after administration (e.g., 5 minutes through 24 hours). Another second set of animals was similarly dosed using oral administration, with blood levels of ILY-4001 determined at various time points after administration (e.g., 30 minutes through 24 hours). The level of ILY-4001 in system to circulation were determined by generally accepted methods (for example as described in Evans, G., A Handbook of Bioanalysis and Drug Metabolism. Boca Raton, CRC Press (2004)). […]

In a further data set the target is human PLA2 IB enzyme (Homo sapiens, UniProt P04054). The settings on record: versus the human PLA2 IB enzyme; Singer, Ghomashchi et al. 2002; cited from earlier work.
Sequence of human PLA2 IB enzyme (P04054 23-148): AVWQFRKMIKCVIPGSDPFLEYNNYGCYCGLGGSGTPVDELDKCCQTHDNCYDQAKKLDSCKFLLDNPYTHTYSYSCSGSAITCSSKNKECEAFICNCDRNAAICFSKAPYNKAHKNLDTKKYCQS
The subject of data set [2] is C57BL/6 (wt) mice on high fat/high sucrose diabetogenic diet. In words: Example 5 in-vivo evaluation in mice on high fat/high sucrose diabetogenic diet. Further details: species or system mouse. The settings on record: for body weight gain compared to wild-type control group: week 4 and week 10; for plasma levels of cholesterol / plasma levels of triglycerides: 10 weeks. On the procedure:
ILY-4001 (FIG. 2) was evaluated as a PLA2 IB inhibitor in a set of experiments using wild-type mice and genetically deficient PLA2 (−/−) mice (also referred to herein as PLA2 knock-out (KO) mice). In these experiments, wild-type and PLA2 (−/−) mice were maintained on a high fat/high sucrose diet, details of which are described below.
Briefly, four groups were set up, each having six mice. Three of the groups included six wild-type PLA2 (+/+) mice in each group (eighteen mice total), and one of the groups included six genetically deficient PLA2 (−/−) mice. One of the wild-type groups was used as a wild-type control group, and was not treated with ILY-4001. The other two wild-type groups were treated with ILY-4001-one group at a lower dose (indicated as “L” in Table 1) of 25 mg/kg/day, and the other at a higher dose (indicated as “H” in Table 1) of 90 mg/kg/day. The group comprising the PLA2 (−/−) mice was used as a positive control group.
The experimental protocol used in this study was as follows. The four groups of mice, including wild type and isogenic PLA2 (−/−) C57BL/J mice were acclimated for three days on a low fat/low carbohydrate diet. After the three day acclimation phase, the animals were fasted overnight and serum samples taken to establish baseline plasma cholesterol, triglyceride, and glucose levels, along with baseline body weight. The mice in each of the treatment groups were then fed a high fat/high sucrose diabetogenic diet (Research Diets D12331). 1000 g of the high fat/high sucrose D12331 diet was composed of casein (228 g), DL-methionine (2 g), maltodextrin 10 (170 g), sucrose (175 g), soybean oil (25 g), hydrogenated coconut oil (333.5 g), mineral mix S10001 (40 g), sodium bicarbonate (10.5 g), potassium citrate (4 g), vitamin mix V10001 (10 g), and choline bitartrate (2 g). This diet was supplemented with ILY-4001 treatments such that the average daily dose of the compound ingested by a 25 g mouse was: 0 mg/kg/day (wild-type control group and PLA2 (−/−) control group); 25 mg/kg/day (low-dose wild-type treatment group), or 90 mg/kg/day (high-dose wild-type treatment group). The animals were maintained on the high fat/high sucrose diet, with the designated ILY-4001 supplementation, for a period of ten weeks.
Body weight measurements were taken for all animals in all treatment and control groups at the beginning of the treatment period and at 4 weeks and 10 weeks after initiation of the study. (See Example 5A). Blood draws were also taken at the beginning of the treatment period (baseline) and at 4 weeks and 10 weeks after initiation of the study, in order to determine fasting glucose (See Example 5B). Cholesterol and triglyceride levels were determined from blood draws taken at the beginning of the treatment (baseline) and at ten weeks. (See Example 5C).

For data set [3] the following is noted: predicted to survive passage through the stomach; cited from earlier work.
The next data set deals with Caco-2 cells. In words: Example 6B Caco-2 permeability study. It is filed as in vitro ADME, human. As to conditions: based on Caco-2 assays and pharmokinetic studies. The method, then:
The culture medium was refreshed every 48 hours.
Papp=(dQ/dt)×(1/C0)×(1/A)
A general note: Passage across Caco-2 layers is used to estimate intestinal permeability.

Sequence of mouse PLA2 IB enzyme (Q9Z0Y2 23-146): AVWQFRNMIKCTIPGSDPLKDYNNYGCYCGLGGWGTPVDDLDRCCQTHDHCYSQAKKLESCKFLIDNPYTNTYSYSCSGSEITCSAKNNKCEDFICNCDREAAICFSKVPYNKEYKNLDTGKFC

On to `Cc1c(C(=O)C(N)=O)c2c(OCC(=O)O)cccc2n1Cc1ccccc1-c1ccccc1` [ILY-4001, 2-(3-(2-amino-2-oxoacetyl)-1-(biphenyl-2-ylmethyl)-2-methyl-1H-indol-4-yloxy)acetic acid], for which the results for the 50% inhibitory concentration (IC50) at mouse PLA2 IB enzyme and at human PLA2 IB enzyme were about 150 nM and about 200 nM, respectively. The “level of non-absorption from the GI tract into systemic circulation” value in data set [1] is recorded as about 72%. Moreover, the “body weight gain compared to wild-type control group” value in data set [2] (25 mg/kg/d in diet) and in data set [2] (90 mg/kg/d in diet) was “significantly reduced body weight gains” throughout. Further, the “plasma levels of cholesterol” value in data set [2] (high dose (90 mg/kg/day)) and in data set [2] (low dose (25 mg/kg/day)) was “substantially reduced” throughout. For the same molecule, the “plasma levels of triglycerides” value in data set [2] (high dose (90 mg/kg/day)) and in data set [2] (low dose (25 mg/kg/day)) was “substantially reduced” each time. Also, the fasting glucose levels entry was “moderately beneficial effect” in data set [2] (low dose (25 mg/kg/day), week four) and “beneficial effect was not observed” in data set [2] (low dose (25 mg/kg/day), week ten). The “stability at low pH” value in data set [3] is reported as “stable at low pH”. In the data set with Caco-2 cells, the “absorbtion from the GI lumen” value was “relatively low absorbtion”.

One may read the IC50 as the midpoint of a concentration-inhibition curve.
